{"source": "patent US9216173B2", "about": "“2-Pyridyl carboxamide-containing spleen tyrosine kinase (SYK) inhibitors” (Merck Sharp & Dohme Corp., priority 2011, dated 2015)"}
{"target": "T1, recombinant human GST-SYK (Homo sapiens, UniProt P43405)", "T1 construct": "purchased Carna Biosciences 08-176", "assay": "Homogeneous Time-Resolved Fluorescence (HTRF) assay for the recombinant human Syk enzyme", "type": "biochemical", "conditions": "GST-hSYK 5 pM, ATP 25 μM, 10-dose titration 10 μM to 0.508 nM; read-out: IC50", "summary_of_the_method": "(§1)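 GST-hSYK fusion phosphorylates a peptide for 45 min at room temperature. Quenched with EDTA buffer containing 2 nM Eu-anti-phosphotyrosine antibody and 70 nM SA-APC. HTRF signal read after 30 min.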", "units": {"IC50": "nM"}}
{"smiles": "Cc1cc(C)nc(Nc2cc(N[C@H]3CC[C@@H]3N)cnc2C(N)=O)c1", "note": "(relative stereo) [Example 1.116, rel-5-{[(1S,2S)-2-aminocyclobutyl]amino}-3-[(4,6-dimethylpyridin-2-yl)amino]pyridine-2-carboxamide]", "IC50": 55}
{"smiles": "Cc1nc(Nc2cc(N[C@@H]3CCCC[C@@H]3N)cnc2C(N)=O)ccc1-c1ccccc1", "note": "[Example 3.2, 5-{[(1R,2S)-2-aminocyclohexyl]amino}-3-[(6-methyl-5-phenylpyridin-2-yl)amino]pyridine-2-carboxamide]", "IC50": 3.9}
{"smiles": "Cc1cc(C)nc(Nc2cc(N[C@@H]3C[C@H]3N)cnc2C(N)=O)c1", "note": "(relative stereo) [Example 2.13, rel-5-{[(1R,2R)-2-aminocyclopropyl]amino}-3-[(4,6-dimethylpyridin-2-yl)amino]pyridine-2-carboxamide]", "IC50": 770}
{"target": "T1, recombinant human GST-SYK", "assay": "Homogeneous Time-Resolved Fluorescence (HTRF) assay for the recombinant human Syk enzyme", "type": "biochemical", "conditions": "GST-hSYK 5 pM, ATP 25 μM, 10-dose titration 10 μM to 0.508 nM; read-out: rhSYK Activity (IC50 rating)", "summary_of_the_method": "as §1", "units": {"IC50": "nM"}}
{"smiles": "Cc1cc(C)nc(Nc2cc(N[C@H]3CC[C@@H]3N)cnc2C(N)=O)c1", "note": "(relative stereo) [Example 1.116, rel-5-{[(1S,2S)-2-aminocyclobutyl]amino}-3-[(4,6-dimethylpyridin-2-yl)amino]pyridine-2-carboxamide]", "IC50": "10 to 100"}
{"smiles": "COc1ncc(-c2ccc(Nc3cc(N[C@@H]4CCCC[C@@H]4N)cnc3C(N)=O)nc2C)cn1", "note": "[Example 3.24, 5-{[(1R,2S)-2-aminocyclohexyl]amino}-3-{[5-(2-methoxypyrimidin-5-yl)-6-methylpyridin-2-yl]amino}pyridine-2-carboxamide]", "IC50": "< 10"}
{"smiles": "Cc1cc(N2CCOCC2)cc(Nc2cc(N[C@@H]3CCCC[C@@H]3N)cnc2C(N)=O)n1", "note": "[Example 1.77, 5-{[(1R,2S)-2-aminocyclohexyl]amino}-3-[(6-methyl-4-morpholin-4-ylpyridin-2-yl)amino]pyridine-2-carboxamide]", "IC50": "< 10"}
{"smiles": "Cc1nc(Nc2cc(N[C@@H]3CCCC[C@@H]3N)cnc2C(N)=O)ccc1-c1ccc(CO)cc1", "note": "[Example 3.7, 5-{[(1R,2S)-2-aminocyclohexyl]amino}-3-({5-[4-(hydroxymethyl)phenyl]-6-methylpyridin-2-yl}amino)pyridine-2-carboxamide]", "IC50": "< 10"}
{"smiles": "CNC(=O)C(N)CNc1cnc(C(N)=O)c(Nc2cc(C)cc(C)n2)c1", "note": "(stereo not shown) [Example 2.1, 5-{[2-amino-3-(methylamino)-3-oxopropyl]amino}-3-[(4,6-dimethylpyridin-2-yl)amino]pyridine-2-carboxamide]", "IC50": "100 to 1000"}
{"smiles": "Cc1cc2ccsc2c(Nc2cc(N[C@@H]3CCCC[C@@H]3N)cnc2C(N)=O)n1", "note": "[Example 1.107, 5-{[(1R,2S)-2-aminocyclohexyl]amino}-3-[(5-methylthieno[2,3-c]pyridin-7-yl)amino]pyridine-2-carboxamide]", "IC50": "< 10"}
{"smiles": "CCC(CN)Nc1cnc(C(N)=O)c(Nc2cccc(-n3nccn3)n2)c1", "note": "(stereo not shown) [Example 1.85, 5-{[1-(aminomethyl)propyl]amino}-3-{[6-(2H-1,2,3-triazol-2-yl)pyridin-2-yl]amino}pyridine-2-carboxanmle]", "IC50": "< 10"}
{"smiles": "CCn1ccc(Nc2cc(N[C@@H]3CCCC[C@@H]3N)cnc2C(N)=O)n1", "note": "[Example 1.49, 5-{[(1R,2S)-2-aminocyclohexyl]amino}-3-[(1-ethyl-1H-pyrazol-3-yl)amino]pyridine-2-carboxamide]", "IC50": "10 to 100"}
{"smiles": "Cc1nc(Nc2cc(N[C@@H]3CCCC[C@@H]3N)cnc2C(N)=O)ccc1-c1ccccc1", "note": "[Example 3.2, 5-{[(1R,2S)-2-aminocyclohexyl]amino}-3-[(6-methyl-5-phenylpyridin-2-yl)amino]pyridine-2-carboxamide]", "IC50": "< 10"}
{"smiles": "Cc1nc(Nc2cc(N[C@@H]3CCCC[C@@H]3N)cnc2C(N)=O)ccc1-c1cnn(C)c1", "note": "[Example 1.11, 5-{[(1R,2S)-2-aminocyclohexyl]amino}-3-{[6-methyl-5-(1-methyl-1H-pyrazol-4-yl)pyridin-2-yl]amino}pyridine-2-carboxamide]", "IC50": "< 10"}
{"smiles": "Cc1nc(Nc2cc(N[C@@H]3CCCC[C@@H]3N)cnc2C(N)=O)ccc1-c1cncnc1", "note": "[Example 3.25, 5-{[(1R,2S)-2-aminocyclohexyl]amino}-3-[(6-methyl-5-pyrimidin-5-ylpyridin-2-yl)amino]pyridine-2-carboxamide]", "IC50": "< 10"}
{"smiles": "Cc1cc(OC(C)C)cc(Nc2cc(N[C@@H]3CCCC[C@@H]3N)cnc2C(N)=O)n1", "note": "[Example 5.2, 5-{[(1R,2S)-2-aminocyclohexyl]amino}-3-{[6-methyl-4-(1-methylethoxy)pyridin-2-yl]amino}pyridine-2-carboxamide]", "IC50": "< 10"}
{"smiles": "COC[C@H](N)CNc1cnc(C(N)=O)c(Nc2cccc(C(F)(F)F)n2)c1", "note": "[Example 1.105, 5-{[(2R)-2-amino-3-methoxypropyl]amino}-3-{[6-(trifluoromethyl)pyridin-2-yl]amino}pyridine-2-carboxamide]", "IC50": "< 10"}
{"smiles": "CN1CCN(c2cccc(Nc3cc(N[C@@H]4CCCC[C@@H]4N)cnc3C(N)=O)n2)CC1", "note": "[Example 1.119, 5-{[(1R,2S)-2-aminocyclohexyl]amino}-3-{[6-(4-methylpiperazin-1-yl)pyridin-2-yl]amino}pyridine-2-carboxamide]", "IC50": "< 10"}
{"smiles": "CCc1cccc(Nc2cc(N[C@@H]3CCCC[C@@H]3N)cnc2C(N)=O)n1", "note": "[Example 13, 5-{[(1R,2S)-2-aminocyclohexyl]amino}-3-[(6-ethylpyridin-2-yl)amino]pyridine-2-carboxamide]", "IC50": "< 10"}
{"smiles": "NC(=O)c1ncc(N[C@@H]2CCCC[C@@H]2N)cc1Nc1cccc(CN2CCOCC2)n1", "note": "[Example 1.60, 5-{[(1R,2S)-2-aminocyclohexyl]amino}-3-{[6-(morpholin-4-ylmethyl)pyridin-2-yl]amino}pyridine-2-carboxamide]", "IC50": "100 to 1000"}
{"smiles": "Cc1nc(Nc2cc(N[C@@H]3CCCC[C@@H]3N)cnc2C(N)=O)ccc1-c1ccc(OC(F)F)cc1", "note": "[Example 3.10, 5-{[(1R,2S)-2-aminocyclohexyl]amino}-3-({5-[4-(difluoromethoxy)phenyl]-6-methylpyridin-2-yl}amino)pyridine-2-carboxamide]", "IC50": "< 10"}
{"smiles": "COc1ccc(Nc2cc(N[C@@H]3CCCC[C@@H]3N)cnc2C(N)=O)nc1C", "note": "[Example 1.111, 5-{[(1R,2S)-2-aminocyclohexyl]amino}-3-[(5-methoxy-6-methylpyridin-2-yl)amino]pyridine-2-carboxamide]", "IC50": "< 10"}
{"smiles": "Cc1cc(OCc2ccccc2)cc(Nc2cc(N[C@@H]3CCCC[C@@H]3N)cnc2C(N)=O)n1", "note": "[Example 5.3, 5-{[(1R,2S)-2-aminocyclohexyl]amino}-3-{[4-(benzyloxy)-6-methylpyridin-2-yl]amino}pyridine-2-carboxamide]", "IC50": "< 10"}
{"smiles": "NC(=O)c1ncc(N[C@@H]2CCCC[C@@H]2N)cc1Nc1ccncn1", "note": "[Example 1.123, 5-{[(1R,2S)-2-aminocyclohexyl]amino}-3-(pyrimidin-4-ylamino)pyridine-2-carboxamide]", "IC50": "100 to 1000"}
{"smiles": "Cc1cc(Nc2cc(N[C@@H]3CCCC[C@@H]3N)cnc2C(N)=O)nc(-c2ccnn2C)c1", "note": "[Example 1.112, 5-{[(1R,2S)-2-aminocyclohexyl]amino}-3-{[4-methyl-6-(1-methyl-1H-pyrazol-5-yl)pyridin-2-yl]amino}pyridine-2-carboxamide]", "IC50": "< 10"}
{"smiles": "Cc1nc(Nc2cc(N[C@@H]3CCCC[C@@H]3N)cnc2C(N)=O)ccc1Br", "note": "[Example 1.31, 5-{[(1R,2S)-2-aminocyclohexyl]amino}-3-[(5-bromo-6-methylpyridin-2-yl)amino]pyridine-2-carboxamide]", "IC50": "< 10"}
{"smiles": "NC(=O)c1ncc(N[C@@H]2CCCC[C@@H]2N)cc1Nc1cccc(-c2ccc3c(c2)OCCO3)n1", "note": "[Example 1.16, 5-{[(1R,2S)-2-aminocyclohexyl]amino}-3-{[6-(2,3-dihydro-1,4-benzodioxin-6-yl)pyridin-2-yl]amino}pyridine-2-carboxamide]", "IC50": "< 10"}
{"smiles": "NCCNc1cnc(C(N)=O)c(Nc2cccc(-n3nccn3)n2)c1", "note": "[Example 1.58, 5-[(2-aminoethyl)amino]-3-{[6-(2H-1,2,3-triazol-2-yl)pyridin-2-yl]amino}pyridine-2-carboxamide]", "IC50": "< 10"}
{"smiles": "Cc1nc(Nc2cc(N[C@@H]3CCCC[C@@H]3N)cnc2C(N)=O)ccc1F", "note": "[Example 1.24, 5-{[(1R,2S)-2-aminocyclohexyl]amino}-3-[(5-fluoro-6-methylpyridin-2-yl)amino]pyridine-2-carboxamide]", "IC50": "< 10"}
{"smiles": "NC(=O)c1ncc(N[C@@H]2CCCC[C@@H]2N)cc1Nc1ccn(-c2ccc(F)cc2)n1", "note": "[Example 1.65, 5-{[(1R,2S)-2-aminocyclohexyl]amino}-3-{[1-(4-fluorophenyl)-1H-pyrazol-3-yl]amino}pyridine-2-carboxamide]", "IC50": "< 10"}
{"smiles": "Cc1cc(C)nc(Nc2cc(N[C@@H]3C[C@H]3N)cnc2C(N)=O)c1", "note": "(relative stereo) [Example 2.13, rel-5-{[(1R,2R)-2-aminocyclopropyl]amino}-3-[(4,6-dimethylpyridin-2-yl)amino]pyridine-2-carboxamide]", "IC50": "100 to 1000"}
{"smiles": "COC[C@H](N)CNc1cnc(C(N)=O)c(Nc2cccc(-n3nccn3)n2)c1", "note": "[Example 1.82, 5-{[(2R)-2-amino-3-methoxypropyl]amino}-3-{[6-(2H-1,2,3-triazol-2-yl)pyridin-2-yl]amino}pyridine-2-carboxamide]", "IC50": "< 10"}
{"smiles": "CCn1cnc(Nc2cc(N[C@@H]3CCCC[C@@H]3N)cnc2C(N)=O)n1", "note": "[Example 1.56, 5-{[(1R,2S)-2-aminocyclohexyl]amino}-3-[(1-ethyl-1H-1,2,4-triazol-3-yl)amino]pyridine-2-carboxamide]", "IC50": "100 to 1000"}
{"smiles": "C[C@H](N)CNc1cnc(C(N)=O)c(Nc2cccc(C(F)(F)F)n2)c1", "note": "[Example 1.104, 5-{[(2S)-2-aminopropyl]amino}-3-{[6-(trifluoromethyl)pyridin-2-yl]amino}pyridine-2-carboxamide]", "IC50": "< 10"}
{"smiles": "C[C@H](N)CNc1cnc(C(N)=O)c(Nc2ccn(C)n2)c1", "note": "[Example 1.92, 5-{[(2S)-2-aminopropyl]amino}-3-[(1-methyl-1H-pyrazol-3-yl)amino]pyridine-2-carboxamide]", "IC50": "10 to 100"}
{"smiles": "CC(C)(O)COCc1cccc(Nc2cc(N[C@@H]3CCCC[C@@H]3N)cnc2C(N)=O)n1", "note": "[Example 1.120, 5-{[(1R,2S)-2-aminocyclohexyl]amino}-3-({6-[(2-hydroxy-2-methylpropoxy)methyl]pyridin-2-yl}amino)pyridine-2-carboxamide]", "IC50": "< 10"}
{"smiles": "Cc1cc(C)nc(Nc2cc(NCC(N)Cc3ccccc3)cnc2C(N)=O)c1", "note": "(stereo not shown) [Example 2.12, 5-[(2-amino-3-phenylpropyl)amino]-3-[(4,6-dimethylpyridin-2-yl)amino]pyridine-2-carboxamide]", "IC50": "10 to 100"}
{"smiles": "Cc1cc(C)nc(Nc2cc(NC(=O)CN)cnc2C(N)=O)c1", "note": "[Example 10, 3-[(4,6-dimethylpyridin-2-yl)amino]-5-(glycylamino)pyridine-2-carboxamide]", "IC50": "100 to 1000"}
